# Key:
# [1] = tested on: MRSA #561 (clinical isolate of methicillin resistant staphylococcus); test: Murine MRSA nasal colonization model; type: in vivo, mice; conditions: 10 μL per nare, three times daily for two days; nares cultured three days after treatment
# Procedure: 1999 Infect and Immunity 67(10) 5001-5006. Prior to evaluation of the active compositions the lowest number of S. aureus required to establish nasal colonization in 70% of mice detectable 5 days after challenge and persisting at least 10 days after challenge was determined. This was using an innoculum of 10^8 cfu/nare. Mice (239 described as 25 g to 30 g Hsd:ICR) were challenged intranasally with 10^8 MRSA #561 (a clinical isolate of methicillin resistant staphylococcus obtained from Mayo Clinic, Rochester, Minn.) and arbitrarily assigned to one of five treatment regimens: mupirocin ointment, bland ointment, antimicrobial compositions of Examples 31, 32, and 33. The bland ointment consisted of petrolatum (89%), glycerin (10%) and DOSS (1%). Mice received either no treatment (none) or treatment with 10 μL per nare of warmed (42° C.) ointment (one of five) to each nare, three times daily for two days Three days after treatment, both anterior nares were swabbed and cultured for MRSA. Colonies appearing to be S. aureus were confirmed with a latex agglutination test. S. aureus was detected in 160 colonization cultures from 239 mice challenged. These mice continued to be studied. The results of the treatments are listed in Table 9e as the number of animals with no MRSA detected after treatment (successful), the percent of the animals treated successfully, the number of animals with MRSA (failure), and the percent of animals whose treatment failed.
# [2] = tested on: 30 Methicillin Susceptible Stapyloccus aureus (MSSA) isolates; test: Emergence of Resistance Test; type: cell-based, Staphylococcus aureus
# Procedure: (§1) Overnight cultures of each of 30 MRSA isolates and 30 Methicillin Susceptible Stapyloccus aureus (MSSA) isolates were grown in Mueller-Hinton broth (MHB) at 35° C. in room air. Bacteria in the broth were concentrated by centrifugation for 15 minutes at 2,200 revolustions per minute (rpm). The spent broth was decanted and replaced with fresh MHB containing 0.5 μL per mL of each of three antimicrobial compositions (Examples 31(IPA), 32(IPA), and 33(IPA)) or 0.125 μg/mL of mupirocin lithium salt (Sigma Aldrich, Milwaukee, Wis.). The cultures were returned to the incubator for 18 hours. Following incubation, each culture was again centrifuged and the bacterial pellet was divided into two aliquots. One aliquot was resuspended in MHB containing fresh antimicrobial compositions at twice the previous concentrations and returned to the incubator for continued exposure.
# (§2) The second aliquot was screened for MRSA and MSSA by incubation with 2 mL of MHB containing 4 μg/mL of mupirocin or 1,200 μg/mL of Examples 31(IPA) or 32(IPA) or 33 (IPA). The resistance screens were incubated overnight at 35° C. in room air. After incubation, each screen was subcultured to fresh MHB and incubated for 4 to 6 hours. Minimum inhibitory concentration (MIC) testing was performed on logarithmically growing bacteria recovered from the screen. This procedure was repeated for 8 days. After 8 days of serial exposure, each bacterial pellet was resuspended in bland MHB and incubated overnight. The MIC of each antimicrobial composition or mupirocin was determined as the MIC90 (range) before and daily during serial passage.
# (§3) The IPA modified antimicrobial compositions were tested using the Emergence of Resistance Test. The results are shown at baseline (T0), after eight days (T8) and the ratio of T0 to T8 in Table 9d.
# 30 MRSA isolates = test: Emergence of Resistance Test; type: cell-based, Staphylococcus aureus
# Procedure: as §1, §2, §3
# [3] = MIC90 after eight days (T8) of serial exposure, unit assumed
# [4] = MIC90 at baseline (T0), unit assumed
smiles,measurement,setting,value
"C/C(=C\C(=O)OCCCCCCCCC(=O)O)C[C@@H]1OC[C@H](C[C@@H]2O[C@H]2[C@@H](C)[C@H](C)O)[C@@H](O)[C@H]1O [Mupirocin, mupirocin]",Number of Mice with MRSA,[1],19
same,Number of Mice without MRSA,[1],19
same,Percent Treated Successfully,[1],50%
same,Percent Whose Treatment Failed,[1],50%
same,MSSA Final (T8) MIC,[2]; [3],128 µg/mL
same,MSSA Initial (T0) MIC,[2]; [4],0.25 µg/mL
same,MSSA MIC fold increase (T8/T0),[2]; ratio of MIC at T0 and T8,512
same,MRSA Final (T8) MIC,30 MRSA isolates; [3],64 µg/mL
same,MRSA Initial (T0) MIC,30 MRSA isolates; [4],0.25 µg/mL
same,Increase of the MIC,30 MRSA isolates; eight days of serial exposure,increased dramatically

# From patent publication US8512723B2, “Antimicrobial compositions and methods” (3M Innovative Properties Company, priority 2003, dated 2013)
